{"source": "patent US9963476B2", "about": "“Antioxidant compound having anti atherosclerotic effect and preparation thereof” (Council of Scientific and Industrial Research, priority 2015, dated 2018)", "key": {"Apo E−/− mice aorta": {"tested_on": "Apo E−/− mice aorta", "experiment": "Mito-Esc quantified by ESI-MS in cytosolic and mitochondrial fractions of ApoE−/− mice aortic tissue", "format": "in vivo", "settings": "0.5 mg/kg/day in drinking water", "procedure": "After the treatment, cells were washed thrice with PBS. Similarly Mito-Esculetin+ Ang-II treatment group, Ang-II alone treatment group and control Apo E^-/- mice aortic tissue was taken. The isolation of mitochondrial and cytosolic extracts was carried out using a commercially available Proteo Extract Cytosol/Mitochondria Fractionation Kit (Cat. no. QIA88-Merck, USA) according to manufacturer's instructions. Initially, mitochondrial and cytosolic fractions were separated using a commercially available kit as mentioned elsewhere. Mito-Esc was quantified in the mitochondrial and cytosolic fractions obtained from HAEC and aorta of ApoE^-/- mice of different treatment groups as mentioned in Animal Experiments section (Table-1). Electrospray ionization (ESI)-MS. ESI-MS (positive mode) measurements were performed using a quadrupole time-of-flight mass spectrometer (QSTAR XL, Applied Biosystems/MDS Sciex, Foster City, Calif., USA). The data acquisition was under the control of Analyst QS software (Applied Biosystems). For the CID (collision-induced dissociation) experiments, the precursor ions were selected using the quadrupole analyzer and the product ions were analyzed using the TOF analyzer."}, "[1]": {"tested_on": "caspase-3 and -8 activation in HAEC", "experiment": "Caspase-3 and -8 activity in HAEC lysates", "format": "cell-based, human", "settings": "2.5 μM pretreatment", "experimental": "Human aortic endothelial cells (HAECs) were obtained from ATCC (Manassas, Va.) and maintained (37° C. 5% CO2) in basal medium supplemented with 10% FBS, VEGF (5 ng/mL), hEGF (5 ng/mL), hFGF (5 ng/mL), IGF-1 (15 ng/mL), ascorbic acid (50 μg/mL), hydrocortisone (1 μg/mL), amphotericin (15 ng/mL), gentamicin (30 ng/mL) and heparin (0.75 Units/mL). Cells used in this study were between passages 4 and 9.\nHAEC were washed twice with cold DPBS and lysed in buffer containing 10-mM Tris-HCl, 10-mM NaH2PO4/Na2HPO4 (pH, 7.5). 130-mM NaCl. 1% Triton, and 10-mM sodium pyrophosphate. Cell lysates were incubated with either with caspase-3 fluorogenic substrate (N-acetyl-Asp-Glu-Val-Asp-7-amido-4-methylcoumarin) or caspase-8 fluorogenic substrate (N-acetyl-Ileu-Glu-Thr-Asp-7 amido-4-methylcoumarin) at 37° C. for 1 h. The 7-amido-4-methyl-coumarin liberated was measured in a multi mode reader (PerkinElmer) with λex=380 nm and λem=460 nm."}, "[2]": {"tested_on": "Ang-II-induced H2O2 production in HAEC", "experiment": "H2O2 levels by Amplex red assay", "format": "cell-based, human", "settings": "Ang-II 500 nM + Mito-Esc 2.5 μM, 16 h", "procedure": "Amplex red reagent was used to detect the released H2O2 from cells. […] Immediately, formation of resorufin fluorescence was measured in multi mode reader (PerkinElmer) with λex=540 and λem=585.\n(§1) Ang-II is known to increase oxidative stress through increased production of H2O2 (Doughan A K, Harrison D G, Dikalov S I. Circ Res (2008) 102:488-96). […] Further, we assessed the effect of Mito-Esc on H2O2-induced mitochondrial membrane depolarization. HAEC were treated with H2O2 (500 μM) in the presence or absence of Mito-Esc for a period of 16 h and mitochondrial membrane potential was measured using a mitochondrial membrane sensor kit. Mito-Sensor is a cationic dye that fluoresces differently in apoptotic and nonapoptotic cells. […] In apoptotic cells, membrane potentials are altered and the Mito-Sensor dye cannot accumulate in mitochondria and, thus, remain as monomers leading to a green fluorescence."}, "[3]": {"tested_on": "mitochondrial membrane potential in HAEC", "experiment": "Mitochondrial transmembrane potential (JC-1 / Mito-Sensor dye)", "format": "cell-based, human", "settings": "H2O2 500 μM, 16 h", "procedure": "Mitochondrial potential was assessed by using the fluorescent potentiometric JC-1 dye. In healthy cells, JC-1 forms J-aggregates that display a strong red fluorescence with excitation of 560 nm and emission wavelength at 595 nm. In apoptotic or unhealthy cells, JC-1 exists as monomers that display a strong green fluorescence with excitation and emission at 485 nm and 535 nm, respectively. At the end of the treatments, cells were washed with Dulbeccos phosphate buffer solution (DPBS) and incubated with JC-1 dye ([…]) for 20 min. Cells were again washed twice with DPBS and maintained in culture medium. Fluorescence was monitored by using Olympus fluorescence microscope with Rhodamine and Fluorescein isothiocyanate (FITC) filters.\nas §1, with “kit.” for “kit. Mito-Sensor is a cationic dye that fluoresces differently in apoptotic and nonapoptotic cells.”"}, "[4]": {"tested_on": "AMPK1-α phosphorylation (Thr-172)", "experiment": "Western blot of AMPK phosphorylation in HAEC", "format": "cell-based, human", "procedure": "Previously, it was shown that AMPK co-immunoprecipitates with cardiac endothelial NO synthase (eNOS) and phosphorylates Ser-1177 in the presence of Ca^2+-calmodulin (CaM) to activate eNOS both in vitro and during ischaemia in rat hearts (FEBS Lett. (1999) 443:285-289). To test whether Mito-Esc mediates increased phosphorylation of eNOS through AMPK activation, initially, HAEC were treated various concentrations of Mito-Esc (1-5 μM) for 8 h and AMPK1-α phosphorylation (Thr-172) levels were measured. […] Next, we investigated the phospho-AMPK1-α levels in HAEC treated with H2O2 in the presence or absence of either Mito-Esc or native esculetin."}, "SIRT-3, PGC-1α, TFAM": {"tested_on": "SIRT-3, PGC-1α, TFAM", "settings": "HAEC, 8 h", "experimental": "At the end of the treatments, HAECs were washed with ice-cold DPBS and resuspended in RIPA buffer (20 mM Tris-HCl, pH 7.4/2.5 mM EDTA/1% Triton X-100/1% sodium deoxycholate/1% SDS/100 mM NaCl/100 mM sodium fluoride) containing protease inhibitor cocktail and phosphatase inhibitor cocktail-2 and -3. The lysate was centrifuged for 15 min at 12000×g. […] Protein bands were detected by using HRP substrate (Millipore-luminata). All the antibodies used for this study were from CST.\nNext we investigated the ability of Mito-Esc to modulate the mitochondrial biogenetic regulators namely, silent mating type information regulation 2 homolog (SIRT)-3, Peroxisome proliferator-activated receptor-gamma coactivator (PGC)-1α and mitochondrial transcription factor A (TFAM)."}, "[5]": {"tested_on": "TNF-α, IFN-γ, MCP-1, Mac-3", "experiment": "Serum proinflammatory cytokines and Mac-3 levels in ApoE−/− mice", "experimental": "Experiments were conducted in 2-month-old male apolipoprotein E knockout (ApoE^−/−) mice according to the guidelines formulated for care and use of animals in scientific research (ICMR, New Delhi, India) at a CPCSEA (Committee for the Purpose of Control and Supervision of Experiments on Animals) registered animal facility. […] Animals were randomly divided into 3 groups each n=7:1) control 2) Ang-II treatment and 3) Mito-Esculetin+Ang-II treatment. Ang-II and Mito-Esculetin treatment groups received Ang-II (sigma) at a dose of 1.44 mg/kg/day for 6 weeks through sub-cutaneous route where as control group received normal saline. Mito-Esculetin treatment group received the compound at a dose of 0.5 mg/kg/day in normal drinking water. All animals were fed on normal chow throughout the study. After 6 weeks, all groups of animals were sacrificed as per standard protocols for euthanasia.\nWe further analyzed the vascular remodelling employing histological stains in tissue sections of thoracic aortas. […] In tune with this, we have also measured Mac-3 levels by flow cytometry."}}}
{"smiles": "O=c1cc(CCCCCCCC[P+](c2ccccc2)(c2ccccc2)c2ccccc2)c2cc(O)c(O)cc2o1.[Br-]", "note": "[Mito-Esc]", "values": [{"measurement": "Mitochondrial fraction", "setting": "Apo E−/− mice aorta", "result": "2547 ± 286", "unit": "nmol/mg protein"}, {"measurement": "H2O2 and Ang-II-induced caspase-3 and -8 activation", "setting": "[1]", "result": "markedly resistant"}, {"measurement": "Ang-II-induced H2O2 levels", "setting": "[2]", "result": "completely reversed H2O2 levels to control conditions"}, {"measurement": "H2O2-mediated mitochondrial membrane depolarization", "setting": "[3]", "result": "significantly rescued"}, {"measurement": "concentration of maximum effect on phospho-AMPK1-α (Thr-172) levels", "setting": "[4]; 1-5 μM, 8 h", "result": 2.5, "unit": "µM"}, {"measurement": "phospho-AMPK1-α (Thr-172) levels", "setting": "[4]; 1-5 μM, 8 h", "result": "dose-dependent increase"}, {"measurement": "Ang-II-mediated inhibition of phospho-AMPK1-α", "setting": "[4]; Ang-II 500 nM, co-incubation", "result": "made cells resistant"}, {"measurement": "AMPK1-α phosphorylation in the presence of H2O2", "setting": "[4]; H2O2 500 μM, 2.5 μM, 8 h", "result": "greatly enhanced"}, {"measurement": "RNA and protein levels of PGC-1α, TFAM", "setting": "SIRT-3, PGC-1α, TFAM; 2.5 μM", "result": "significantly increased"}, {"measurement": "SIRT-3 levels", "setting": "SIRT-3, PGC-1α, TFAM; 1-5 μM", "result": "significantly increased"}, {"measurement": "Ang-II treatment induced inhibition of PGC-1A, TFAM and SIRT-3 levels", "setting": "SIRT-3, PGC-1α, TFAM; Ang-II 500 nM, 2.5 μM", "result": "significantly reversed"}, {"measurement": "Ang-II-induced proinflammatory cytokines (TNF-α, IFN-γ, MCP-1) production", "setting": "[5]; ApoE−/− mice serum", "result": "significant inhibition"}, {"measurement": "Mac-3 levels by flow cytometry", "setting": "[5]; ApoE−/− mice, by 30 days of treatment", "result": "inhibition of Mac3 levels"}]}
